US20260028353
Like-named read-outs stand apart in the source and are kept apart here.

Assays:
[1] = 2 steps

tert-butyl 4-((9S,15S,18S,21 S)-3-(5-(4-cyclopropylpiperazin-1-yl)-2-((S)-1-methoxyethyl)pyridin-3-yl)-2-ethyl-18-isopropyl-5,5-dimethyl-8,14,17-trioxo-2,4,5,6,9,10,11,12,15,16,17,18,21,22-tetradecahydro-8H,14H,20H-9,13-epimino-1,29-etheno-15,26-methano-24,28-(metheno)pyrrolo[3,4-q][1,13,26]trioxa[4,7]diazacyclononacosin-21-yl)piperazine-1-carboxylate
ring closure, isolated yield (ether bond, 13-membered ring): 40%

COC(=O)[C@@H]1CCCN(C(=O)[C@H]2NC(=O)[C@H](C(C)C)N3CCC[C@@H]3COc3ccccc3CN(C)[C@@H]2c2nc(Br)cs2)N1
ring closure, isolated yield (from COC(=O)[C@@H]1CCCN(C(=O)[C@@H](N)[C@@H](c2nc(Br)cs2)N(C)Cc2ccccc2OC[C@H]2CCCN2[C@H](C(=O)O)C(C)C)N1, amide bond, 13-membered ring, HATU/DIEA, DMF, 12.4 mM, 20.0 °C, 2 steps): 55%

(9S,15S,18S)-25-benzyl-2-ethyl-18-isopropyl-3-(2-((S)-1-methoxyethyl)pyridin-3-yl)-5,5,19-trimethyl-2,4,5,6,9,10,11,12,15,16,18,19,22,23,24,25-hexadecahydro-8H-9,13-epimino-1,31-etheno-15,28-methano-26,30-(metheno)pyrrolo[3,4-a1][1]oxa[7,10,13,19]tetraazacyclohentriacontine-8,14,17,20(21H)-tetraone
ring closure, isolated yield (amide bond, 15-membered ring, 2 steps): 95%

(9S,15S,18R,22S)-2-ethyl-18-isopropyl-3-(2-((S)-1-methoxyethyl)-5-(4-methylpiperazin-1-y)pyridin-3-yl)-5,5-dimethyl-22-phenyl-2,4,5,6,9,10,11,12,15,16,18,19,22,23-tetradecahydro-8H,21H-9,13-epimino-1,29-etheno-15,26-methano-24,28-(metheno)pyrrolo[3,4-l][1,17]dioxa[4,23,26]triazacyclononacosine-8,14,17-trione
ring closure, isolated yield (amide bond, 13-membered ring, 2 steps): 6.4%

(9S,15S,18R,21R)-3-(5-(4-cyclopropylpiperazin-1-yl)-2-((S)-1-methoxyethyl)pyridin-3-yl)-21-(2,6-dichloropyridin-4-yl)-2-ethyl-18-isopropyl-5,5-dimethyl-2,4,5,6,9,10,11,12,15,16,18,19,22,23-tetradecahydro-8H,21H-9,13-epimino-1,29-etheno-15,26-methano-24,28-(metheno)pyrrolo[3,4-l][1,17]dioxa[4,23,26]triazacyclononacosine-8,14,17-trione
ring closure, isolated yield (amide bond, 13-membered ring, EDCI/HOBt/DIEA, DCM, 2 steps): 66%

(9S,15S,18S,20aS,21aR)-2-ethyl-18-isopropyl-3-(2-((S)-1-methoxyethyl)pyridin-3-yl)-5,5,19-trimethyl-2,4,5,6,9,10,11,12,15,16,18,19,21,21a,22,23-hexadecahydro-8H-9,13-epimino-1,29-etheno-15,26-methano-24,28-(metheno)cyclopropa[o]pyrrolo[3,4-z][1]oxa[7,10,13,18]tetraazacyclotriacontine-8,14,17,20(20aH)-tetraone
ring closure, yield after HPLC ([1]; amide bond, 14-membered ring): 1.5%

(9S,15S,18R)-3-(5-(4-cyclopropylpiperazin-1-yl)-2-((S)-1-methoxyethyl)pyridin-3-yl)-2-ethyl-18-isopropyl-5,5-dimethyl-21-phenyl-2,4,5,6,9,10,11,12,15,16,19,22-dodecahydro-8H,14H-9,13-epimino-1,29-etheno-15,26-methano-24,28-(metheno)pyrrolo[3,4-u][1,17]dioxa[4,8,11]triazacyclononacosine-8,14,17(18H)-trione
ring closure, isolated yield (other bond, 13-membered ring, 2 steps): 62%

COC(=O)[C@@H]1CCCN(C(=O)[C@@H]2Cc3cc(Br)cc(c3)CN(c3ccccc3)CCO[C@@H](C(C)C)C(=O)N2)N1
ring closure, isolated yield (from COC(=O)[C@@H]1CCCN(C(=O)[C@@H](N)Cc2cc(Br)cc(CN(CCO[C@H](C(=O)O)C(C)C)c3ccccc3)c2)N1, amide bond, 13-membered ring, EDCI/HOBt/DIEA, DCM, 107.0 mM, 25.0 °C, 2 steps): 34%

(9S,15S,18S)-3-(5-(4-cyclopropylpiperazin-1-yl)-2-((S)-1-methoxyethyl)pyridin-3-yl)-2-ethyl-18-isopropyl-5,5-dimethyl-22-phenyl-2,4,5,6,9,10,11,12,15,16,20,21,22,23-tetradecahydro-8H,14H-9,13-epimino-1,29-etheno-15,26-methano-24,28-(metheno)pyrrolo[3,4-q][1,13]dioxa[4,7,27]triazacyclononacosine-8,14,17(18H)-trione
ring closure, yield after HPLC ([1]; ester bond, 18-membered ring): 23%

COC(=O)[C@@H]1Cc2cc(cc(Cl)n2)C=CCOC[C@@H](C(C)C)C(=O)N1
ring closure, isolated yield (from C=CCOC[C@H](C(=O)N[C@@H](Cc1cc(C=C)cc(Br)n1)C(=O)OC)C(C)C, rcm bond, 13-membered ring, Grubbs II (0.1 eq), DCM, 2.28 mM, 40.0 °C): 81%

tert-butyl ((9S,15S,18S,22R)-2-ethyl-18-isopropyl-3-(2-((S)-1-methoxyethyl)pyridin-3-yl)-5,5,19-trimethyl-8,14,17,20-tetraoxo-2,4,5,6,9,10,11,12,15,16,17,18,19,20,21,22,23,24-octadecahydro-8H,14H-9,13-epimino-1,31-etheno-15,28-methano-26,30-(metheno)pyrrolo[3,4-a1][1,19]dioxa[7,10,13]triazacyclohentriacontin-22-yl)carbamate
ring closure, isolated yield (amide bond, 15-membered ring, 3 steps): 27%

CCOC(=O)[C@@H]1Cc2nc(Br)sc2CCCC(=O)N(C)[C@@H](C(C)C)C(=O)N1
ring closure, isolated yield (from CCOC(=O)[C@@H](N)Cc1nc(Br)sc1CCCC(=O)N(C)[C@H](C(=O)O)C(C)C, amide bond, 12-membered ring, HATU/DIEA, DMF, 209.0 mM, 0.0 °C, 3 steps): 28%

(9S,15S,18S,Z)-2-ethyl-18-isopropyl-3-(2-((S)-1-methoxyethyl)pyridin-3-yl)-5,5,19-trimethyl-2,4,5,6,9,10,11,12,15,16,18,19,23,24-tetradecahydro-8H,14H-9,13-epimino-1,30-etheno-15,27-methano-25,29-(metheno)pyrrolo[3,4-z][1]oxa[7,10,13,18]tetraazacyclotriacontine-8,14,17,20-tetraone
ring closure, isolated yield (rcm bond, 14-membered ring, Grubbs II, DCM, 7.1 mM, 40.0 °C): 16%

(9S,15S,18S,20aS,21aS,E)-2-ethyl-18-isopropyl-3-(2-((S)-1-methoxyethyl)pyridin-3-yl)-5,5,19-trimethyl-2,4,5,6,9,10,11,12,15,16,18,19,21,21a-tetradecahydro-8H-9,13-epimino-1,29-etheno-15,26-methano-24,28-(metheno)cyclopropa[o]pyrrolo[3,4-z][1]oxa[7,10,13]triazacyclotriacontine-8,14,17,20(20aH)-tetraone
ring closure, isolated yield (rcm bond, 14-membered ring, Grubbs II (0.5 eq), DCM, 12.0 mM, 40.0 °C): 11%
